Test results taken from ChEMBL document CHEMBL4251681, “Isochromophilones A-F, Cytotoxic Chloroazaphilones from the Marine Mangrove Endophytic Fungus Diaporthe sp. SCSIO 41011” (J Nat Prod, 2018).
pIC50: −log10 of the molar value. Active and inactive are the calls of the source. No cut-off for these calls is given here.

Key:
[1] = tested on: OS-RC-2; experiment: Cytotoxicity against human OS-RC2 cells after 72 hrs by CCK-8 assay; type: functional, cell-based; details: OS-RC-2, 72 h
[2] = tested on: 786-0; experiment: Cytotoxicity against human 786-O cells after 72 hrs by CCK-8 assay; type: functional, cell-based; details: 786-0, 72 h
[3] = tested on: ACHN; experiment: Cytotoxicity against human ACHN cells after 72 hrs by CCK-8 assay; type: functional, cell-based
[4] = tested on: 786-0; experiment: Induction of apoptosis in human 786-O cells assessed as necrotic cells at 5 uM after 24 hrs by annexin V-FITC/propidium iodide staining based flow cytometry (reference value: 0%); type: functional
[5] = tested on: 786-0; experiment: Induction of apoptosis in human 786-O cells assessed as early apoptotic cells at 2.5 uM after 24 hrs by annexin V-FITC/propidium iodide staining based flow cytometry (reference value: 0%); type: functional
[6] = tested on: 786-0; experiment: Induction of apoptosis in human 786-O cells assessed as late apoptotic cells at 10 uM after 72 hrs by annexin V-FITC/propidium iodide staining based flow cytometry (reference value: 0%); type: functional
[7] = tested on: 786-0; experiment: Induction of apoptosis in human 786-O cells assessed as viable cells at 2.5 uM after 72 hrs by annexin V-FITC/propidium iodide staining based flow cytometry (reference value: 100%); type: functional; details: 786-0, 72 h, read-out: Activity
[8] = tested on: 786-0; experiment: Induction of apoptosis in human 786-O cells assessed as necrotic cells at 10 uM after 48 hrs by annexin V-FITC/propidium iodide staining based flow cytometry (reference value: 0%); type: functional
[9] = tested on: 786-0; experiment: Induction of apoptosis in human 786-O cells assessed as late apoptotic cells at 5 uM after 72 hrs by annexin V-FITC/propidium iodide staining based flow cytometry (reference value: 0%); type: functional
[10] = tested on: 786-0; experiment: Induction of apoptosis in human 786-O cells assessed as early apoptotic cells at 5 uM after 24 hrs by annexin V-FITC/propidium iodide staining based flow cytometry (reference value: 0%); type: functional
[11] = tested on: 786-0; experiment: Induction of apoptosis in human 786-O cells assessed as early apoptotic cells at 2.5 uM after 48 hrs by annexin V-FITC/propidium iodide staining based flow cytometry (reference value: 0%); type: functional
[12] = tested on: 786-0; experiment: Induction of apoptosis in human 786-O cells assessed as late apoptotic cells at 2.5 uM after 48 hrs by annexin V-FITC/propidium iodide staining based flow cytometry (reference value: 0%); type: functional
[13] = tested on: 786-0; experiment: Induction of apoptosis in human 786-O cells assessed as viable cells at 2.5 uM after 24 hrs by annexin V-FITC/propidium iodide staining based flow cytometry (reference value: 100%); type: functional; details: 786-0, 24 h, read-out: Activity
[14] = tested on: 786-0; experiment: Induction of apoptosis in human 786-O cells assessed as late apoptotic cells at 5 uM after 24 hrs by annexin V-FITC/propidium iodide staining based flow cytometry (reference value: 0%); type: functional
[15] = tested on: 786-0; experiment: Induction of apoptosis in human 786-O cells assessed as necrotic cells at 5 uM after 72 hrs by annexin V-FITC/propidium iodide staining based flow cytometry (reference value: 0%); type: functional
[16] = tested on: 786-0; experiment: Induction of apoptosis in human 786-O cells assessed as late apoptotic cells at 10 uM after 48 hrs by annexin V-FITC/propidium iodide staining based flow cytometry (reference value: 0%); type: functional
[17] = tested on: 786-0; experiment: Induction of apoptosis in human 786-O cells assessed as late apoptotic cells at 2.5 uM after 72 hrs by annexin V-FITC/propidium iodide staining based flow cytometry (reference value: 0%); type: functional
[18] = tested on: 786-0; experiment: Induction of apoptosis in human 786-O cells assessed as necrotic cells at 10 uM after 24 hrs by annexin V-FITC/propidium iodide staining based flow cytometry (reference value: 0%); type: functional
[19] = tested on: 786-0; experiment: Induction of apoptosis in human 786-O cells assessed as viable cells at 5 uM after 48 hrs by annexin V-FITC/propidium iodide staining based flow cytometry (reference value: 100%); type: functional; details: 786-0, 48 h, read-out: Activity
[20] = tested on: 786-0; experiment: Induction of apoptosis in human 786-O cells assessed as early apoptotic cells at 10 uM after 48 hrs by annexin V-FITC/propidium iodide staining based flow cytometry (reference value: 0%); type: functional
[21] = tested on: 786-0; experiment: Induction of apoptosis in human 786-O cells assessed as viable cells at 5 uM after 24 hrs by annexin V-FITC/propidium iodide staining based flow cytometry (reference value: 100%); type: functional; details: 786-0, 24 h, read-out: Activity
[22] = tested on: 786-0; experiment: Induction of apoptosis in human 786-O cells assessed as viable cells at 10 uM after 24 hrs by annexin V-FITC/propidium iodide staining based flow cytometry (reference value: 100%); type: functional; details: 786-0, 24 h, read-out: Activity
[23] = tested on: 786-0; experiment: Induction of apoptosis in human 786-O cells assessed as late apoptotic cells at 5 uM after 48 hrs by annexin V-FITC/propidium iodide staining based flow cytometry (reference value: 0%); type: functional
[24] = tested on: 786-0; experiment: Induction of apoptosis in human 786-O cells assessed as late apoptotic cells at 2.5 uM after 24 hrs by annexin V-FITC/propidium iodide staining based flow cytometry (reference value: 0%); type: functional
[25] = tested on: 786-0; experiment: Induction of apoptosis in human 786-O cells assessed as necrotic cells at 2.5 uM after 24 hrs by annexin V-FITC/propidium iodide staining based flow cytometry (reference value: 0%); type: functional
[26] = tested on: 786-0; experiment: Induction of apoptosis in human 786-O cells assessed as necrotic cells at 10 uM after 72 hrs by annexin V-FITC/propidium iodide staining based flow cytometry (reference value: 0%); type: functional
[27] = tested on: 786-0; experiment: Induction of apoptosis in human 786-O cells assessed as viable cells at 5 uM after 72 hrs by annexin V-FITC/propidium iodide staining based flow cytometry (reference value: 100%); type: functional; details: 786-0, 72 h, read-out: Activity
[28] = tested on: 786-0; experiment: Induction of apoptosis in human 786-O cells assessed as viable cells at 10 uM after 72 hrs by annexin V-FITC/propidium iodide staining based flow cytometry (reference value: 100%); type: functional; details: 786-0, 72 h, read-out: Activity
[29] = tested on: 786-0; experiment: Induction of apoptosis in human 786-O cells assessed as necrotic cells at 2.5 uM after 72 hrs by annexin V-FITC/propidium iodide staining based flow cytometry (reference value: 0%); type: functional
[30] = tested on: 786-0; experiment: Induction of apoptosis in human 786-O cells assessed as viable cells at 2.5 uM after 48 hrs by annexin V-FITC/propidium iodide staining based flow cytometry (reference value: 100%); type: functional; details: 786-0, 48 h, read-out: Activity
[31] = tested on: 786-0; experiment: Induction of apoptosis in human 786-O cells assessed as early apoptotic cells at 5 uM after 48 hrs by annexin V-FITC/propidium iodide staining based flow cytometry (reference value: 0%); type: functional
[32] = tested on: 786-0; experiment: Induction of apoptosis in human 786-O cells assessed as necrotic cells at 5 uM after 48 hrs by annexin V-FITC/propidium iodide staining based flow cytometry (reference value: 0%); type: functional
[33] = tested on: 786-0; experiment: Induction of apoptosis in human 786-O cells assessed as viable cells at 10 uM after 48 hrs by annexin V-FITC/propidium iodide staining based flow cytometry (reference value: 100%); type: functional; details: 786-0, 48 h, read-out: Activity
[34] = tested on: 786-0; experiment: Induction of apoptosis in human 786-O cells assessed as necrotic cells at 2.5 uM after 48 hrs by annexin V-FITC/propidium iodide staining based flow cytometry (reference value: 0%); type: functional
[35] = tested on: 786-0; experiment: Cell cycle arrest in human 786-O cells at 2.5 to 10 uM after 24 hrs by […] based flow cytometry; type: functional
[36] = tested on: 786-0; experiment: Induction of apoptosis in human 786-O cells assessed as early apoptotic cells at 2.5 uM after 72 hrs by annexin V-FITC/propidium iodide staining based flow cytometry (reference value: 0%); type: functional
[37] = tested on: 786-0; experiment: Induction of apoptosis in human 786-O cells assessed as early apoptotic cells at 5 uM after 72 hrs by annexin V-FITC/propidium iodide staining based flow cytometry (reference value: 0%); type: functional
[38] = tested on: 786-0; experiment: Induction of apoptosis in human 786-O cells assessed as early apoptotic cells at 10 uM after 72 hrs by annexin V-FITC/propidium iodide staining based flow cytometry (reference value: 0%); type: functional
[39] = tested on: 786-0; experiment: Induction of apoptosis in human 786-O cells assessed as early apoptotic cells at 10 uM after 24 hrs by annexin V-FITC/propidium iodide staining based flow cytometry (reference value: 0%); type: functional
[40] = tested on: 786-0; experiment: Induction of apoptosis in human 786-O cells assessed as late apoptotic cells at 10 uM after 24 hrs by annexin V-FITC/propidium iodide staining based flow cytometry (reference value: 0%); type: functional

## CC[C@H](C)/C=C(C)/C=C/C1=CC2=C(Cl)C(=O)[C@](C)(O)[C@@H](O)[C@H]2CO1
[1]
  pIC50: 5.31
[2]
  pIC50: 4.32
[3]
  pIC50: < 4.30

## CC[C@H](C)/C=C(C)/C=C/C1=CC2=C(Cl)[C@H](OC)[C@]3(C)O[C@](C)(OC)[C@H](C(C)=O)[C@H]3C2=CO1
[1]
  pIC50: 4.36
[2]
  pIC50: 4.42
[3]
  pIC50: < 4.30

## CC[C@H](C)/C=C(C)/C=C/C1=CC2=C(Cl)C(=O)[C@](C)(O)[C@@H](CC(C)=O)C2=CO1
[1]
  pIC50: 5.41
[2]
  pIC50: 5.52
[3]
  pIC50: 5.36

## CC[C@H](C)/C=C(C)/C=C/C1=CC2=C(Cl)C(=O)[C@]3(C)OC(=O)/C(=C(\C)O)[C@]3(O)[C@@]23O[C@H]3O1
[1]
  pIC50: 4.42
[2]
  pIC50: 5.00
[3]
  pIC50: 4.89

## CC[C@H](C)/C=C(C)/C=C/C1=CC2=C(Cl)[C@H](OC)[C@]3(C)O[C@@](C)(OC)[C@H](C(C)=O)[C@H]3C2=CO1
[4]
  Activity: 10.4%
[5]
  Activity: 0.8%
[6]
  Activity: 70.7%
[7]
  viability at 2.5 µM: 90.7%
[8]
  Activity: 36.7%
[9]
  Activity: 4%
[10]
  Activity: 0.6%
[11]
  Activity: 2%
[12]
  Activity: 1.7%
[13]
  viability at 2.5 µM: 93.3%
[1]
  pIC50: 4.89
[14]
  Activity: 2%
[15]
  Activity: 6.6%
[16]
  Activity: 45.5%
[17]
  Activity: 1.8%
[18]
  Activity: 28.8%
[19]
  viability at 5 µM: 86.1%
[20]
  Activity: 11.2%
[21]
  viability at 5 µM: 87%
[22]
  viability at 10 µM: 60.9%
[23]
  Activity: 2.3%
[24]
  Activity: 1.5%
[25]
  Activity: 4.4%
[26]
  Activity: 1.4%
[27]
  viability at 5 µM: 85.9%
[28]
  viability at 10 µM: 0.5%
[29]
  Activity: 6%
[30]
  viability at 2.5 µM: 93.7%
[31]
  Activity: 2.8%
[32]
  Activity: 8.9%
[33]
  viability at 10 µM: 6.6%
[34]
  Activity: 2.5%
[2]
  pIC50: 5.05
[35]
  Activity: inactive
[36]
  Activity: 1.5%
[37]
  Activity: 3.5%
[38]
  Activity: 27.4%
[39]
  Activity: 2.7%
[3]
  pIC50: 4.85
[40]
  Activity: 7.5%

## CC[C@H](C)/C=C(C)/C=C/C1=CC2=C(Cl)[C@H](O)[C@]3(C)OC(=O)[C@H](C(C)=O)[C@H]3C2=CO1
[1]
  pIC50: 4.35
[2]
  pIC50: 4.47
[3]
  pIC50: 4.57
